Source: patent US10493030B2 (priority 2015, dated 2019)

How the values were obtained:
[1] = system: Jurkat-LAT-GFP; assay: in vitro model of HIV-1 latency, Jurkat-LAT-GFP; format: cell-based
[2] = system: classical PKCs pathways; assay: cPKC translocation and signalling pathway activation in T cells; format: cell-based
From the text: Low concentrations of Bryostatin-1 activate the cPKC-Ras-Raf-ERK pathway and synergize with an HDAC inhibitor, valproic acid (VPA), to activate the transcription factor SP1.

[3] = system: transcription factor SP1; assay: activation of transcription factor SP1, combination with valproic acid; format: cell-based; conditions: low concentrations; with HDAC inhibitor valproic acid
[4] = system: T cells; assay: transcriptome studies in T cells; format: cell-based; conditions: 10 and 100 nM
[5] = system: PBMC isolated from HIV-1 patients; assay: HIV-1 latency ex vivo in PBMC isolated from HIV-1 patients; format: cell-based, human
[6] = Phase I clinical study in HIV-1 patients (NCT02269605); format: in vivo, human; conditions: doses of 10 and 20 μg/m2
[7] = system: human HIV-1 receptors CD4 and CXCR4; conditions: low concentrations; cited from earlier work
[8] = system: HIV-1; conditions: low concentrations; cited from earlier work
[9] = system: HIV-1 latency; conditions: very low concentrations (1-10 nM); in vitro; cited from earlier work
[10] = system: HIV; conditions: some HIV-infected patients; cited from earlier work
[11] = concentrations higher than 10 nM

SMILES: CCC/C=C/C=C/C(=O)O[C@H]1/C(=C/C(=O)OC)C[C@H]2C[C@H]([C@@H](C)O)OC(=O)C[C@H](O)C[C@@H]3C[C@H](OC(C)=O)C(C)(C)[C@](O)(C[C@@H]4C/C(=C/C(=O)OC)C[C@H](/C=C/C(C)(C)[C@]1(O)O2)O4)O3 [Bryostatin-1]
- reactivation of HIV-1 latency in T cells ([1]; Jurkat-LAT-GFP, via classical PKCs pathways): re-activates HIV-1 latency
- reactivation of HIV-1 latency ([1]; lower concentrations (10 nM), ERK activation and nuclear phosphorylation of p65): fully reactivates HIV-1 latency
- activation of NF-κB and MAPKs (JNK and ERK) pathways [2, 11]: activated the canonical NF-κB and MAPKs (JNK and ERK) pathways
- translocation of cPKCs [2, 11]: induced translocation of cPKCs to the plasma membrane
- translocation of cPKCs and Ras-GRP1 ([2]; lower concentrations (10 nM)): translocated cPKCs and Ras-GRP1 to the endoplasmic reticulum
- synergy with valproic acid (VPA) to activate the transcription factor SP1 [3]: synergize
- gene expression in T cells, low vs. high concentrations [4]: differentially regulate gene expression
- HIV-1 latency ex vivo [5]: antagonized HIV-1 latency
- adverse events [6]: did not induced significant adverse events
- expression of the human HIV-1 receptors CD4 and CXCR4 [7]: down-regulated
- de novo HIV-1 infection [8]: prevent de novo HIV-1 infection
- synergy with HDAC inhibitors such as valproic acid to antagonise HIV-1 latency [9]: synergizes

SMILES: O=C(CCCCCCC(=O)Nc1ccccc1)NO [Vorinostat]
- HIV transcription from latency [10]: significant and sustained increase in HIV transcription from latency
